From US20020137929A1, “1 - (3-heterocyclylphenyl) isothiourea, -isourea, -guanidine and -amidine herbicidal agents” (Intellectual Property Department, BASF Aktiengesellschaft, priority 1998, published 2002)

Columns and labels:
[1] = tested on: ECHCG (Barnyardgrass); test: Preemergence herbicidal evaluation; format: in vivo, Echinochloa crus-galli; conditions: rated 4-5 weeks after treatment
Procedure, shortened: (§1)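 Seeds were mixed with potting soil and planted on about one inch of soil, then sprayed with test compound in aqueous acetone at about 0.0156 to 0.500 kg per hectare. Plants grew under standard greenhouse care and were visually rated 0-9 against untreated controls 4-5 weeks post-treatment.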

[2] = tested on: GALAP (Galium); test: Postemergence herbicidal evaluation; format: in vivo, Galium aparine; conditions: postemergence
Procedure, shortened: (§2)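 Each compound, dispersed in an acetone/water mix (50/50) carrying 0.5% TWEEN 20, is nozzle-sprayed at 40 psi on approximately two-week-old seedlings at about 0.0156–0.500 kg/ha. Plants are assessed 4–5 weeks afterward on a 0–9 scale relative to control; duplicate tests are averaged.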

[3] = tested on: CASOB (Sicklepod); test: Postemergence herbicidal evaluation; format: in vivo, Cassia obtusifolia; conditions: postemergence
Procedure, shortened: as §2

[4] = tested on: ABUTH (Velvetleaf); test: Preemergence herbicidal evaluation; format: in vivo, Abutilon theophrasti; conditions: rated 4-5 weeks after treatment
Procedure, shortened: as §1

[5] = tested on: GLXMAW (Soybean, Williams); test: Preemergence herbicidal evaluation; format: in vivo, Glycine max, (L.) Merr. cv Williams; conditions: rated 4-5 weeks after treatment
Procedure, shortened: as §1

[6] = tested on: AMBEL (Ragweed, Common); test: Postemergence herbicidal evaluation; format: in vivo, Ambrosia artemisifolia; conditions: postemergence
Procedure, shortened: as §2

[7] = tested on: CASOB (Sicklepod); test: Preemergence herbicidal evaluation; format: in vivo, Cassia obtusifolia; conditions: rated 4-5 weeks after treatment
Procedure, shortened: as §1

[8] = tested on: SAGPY (Arrowhead (Pygmaea)); test: Preemergence weed control under flooded paddy conditions; format: in vivo, Sagittaria pygmaea; conditions: rated 3-4 weeks after treatment
Procedure, shortened: (§3)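 Using flooded silt loam (water 1.5 to 3 cm deep), seeds sown in the top 0.5 cm were exposed preemergence to compound pipetted into the flood at about 0.0313 to 0.500 kg/ha. Effects were scored 0-9 by eye three to four weeks later.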

[9] = tested on: TRZAWR (Wheat, Winter, cv Riband); test: Preemergence herbicidal evaluation; format: in vivo, Triticum aestivum; conditions: rated 4-5 weeks after treatment
Procedure, shortened: as §1

[10] = tested on: IPOHE (Morningglory, Ivyleaf); test: Postemergence herbicidal evaluation; format: in vivo, Ipomoea hederacea; conditions: postemergence
Procedure, shortened: as §2

[11] = tested on: CYPIR (Rice Flatsedge); test: Postemergence weed control under flooded paddy conditions; format: in vivo, Cyperus iria; conditions: postemergence weeds, 3-4 weeks after treatment
Procedure, shortened: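 With weeds 3 to 5 cm tall and rice at the 1.5 to 2.5 leaf stage, containers were flooded and water held 1.5 to 3 cm above soil. Compounds in 50/50 v/v aqueous/acetone went into the flood water at about 0.0313 to 0.500 kg/ha a.i. Effects were visually rated 0–9 against controls after three to four weeks in the greenhouse.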

[12] = tested on: IPOHE (Morningglory, Ivyleaf); test: Preemergence herbicidal evaluation; format: in vivo, Ipomoea hederacea; conditions: rated 4-5 weeks after treatment
Procedure, shortened: as §1

[13] = tested on: MOOVA (Monochoria); test: Preemergence weed control under flooded paddy conditions; format: in vivo, Monochoria vaginalis; conditions: rated 3-4 weeks after treatment
Procedure, shortened: as §3

[14] = tested on: ZEAMX (Corn, Field); test: Preemergence herbicidal evaluation; format: in vivo, Zea mays; conditions: rated 4-5 weeks after treatment
Procedure, shortened: as §1

COC(=O)CN1C(=O)CSC1=Nc1cc(-n2c(=O)cc(C(F)(F)F)n(C)c2=O)c(F)cc1Cl [Compound 17, Methyl 2-{{2-chloro-5-[3,6-dihydro-3-methyl-2,6-dioxo-4-(trifluoromethyl)-1(2H)-pyrimidinyl]-4-fluorophenyl}imino}-4-oxo-3-thiazolidineacetate]
ECHCG preemergence herbicidal rating ([1]; rate 0.0156 kg/ha): 0.5
ECHCG preemergence herbicidal rating ([1]; rate 0.0313 kg/ha): 0.7
ECHCG preemergence herbicidal rating ([1]; rate 0.0625 kg/ha): 1.0
ECHCG preemergence herbicidal rating ([1]; rate 0.1250 kg/ha): 0.7
ECHCG preemergence herbicidal rating ([1]; rate 0.2500 kg/ha): 4.3
ECHCG preemergence herbicidal rating ([1]; rate 0.5000 kg/ha): 9.0
GALAP herbicidal rating ([2]; rate 0.0156 kg/ha): 1.5
GALAP herbicidal rating ([2]; rate 0.0313 kg/ha): 3.5
GALAP herbicidal rating ([2]; rate 0.0625 kg/ha): 5.5
GALAP herbicidal rating ([2]; rate 0.1250 kg/ha): 6.0
CASOB herbicidal rating ([3]; rate 0.0156 kg/ha): 0.0
CASOB herbicidal rating ([3]; rate 0.0313 kg/ha): 1.0
CASOB herbicidal rating ([3]; rate 0.0625 kg/ha): 1.0
CASOB herbicidal rating ([3]; rate 0.1250 kg/ha): 5.5
ABUTH preemergence herbicidal rating ([4]; rate 0.0156 kg/ha): 0.0
ABUTH preemergence herbicidal rating ([4]; rate 0.0313 kg/ha): 4.0
ABUTH preemergence herbicidal rating ([4]; rate 0.0625 kg/ha): 9.0
ABUTH preemergence herbicidal rating ([4]; rate 0.1250 kg/ha): 9.0
ABUTH preemergence herbicidal rating ([4]; rate 0.2500 kg/ha): 9.0
ABUTH preemergence herbicidal rating ([4]; rate 0.5000 kg/ha): 9.0
GLXMAW preemergence herbicidal rating ([5]; rate 0.0156 kg/ha): 0.0
GLXMAW preemergence herbicidal rating ([5]; rate 0.0313 kg/ha): 0.0
GLXMAW preemergence herbicidal rating ([5]; rate 0.0625 kg/ha): 0.3
GLXMAW preemergence herbicidal rating ([5]; rate 0.1250 kg/ha): 0.3
GLXMAW preemergence herbicidal rating ([5]; rate 0.2500 kg/ha): 3.3
GLXMAW preemergence herbicidal rating ([5]; rate 0.5000 kg/ha): 6.5
AMBEL herbicidal rating ([6]; rate 0.0156 kg/ha): 3.0
AMBEL herbicidal rating ([6]; rate 0.0313 kg/ha): 6.0
AMBEL herbicidal rating ([6]; rate 0.0625 kg/ha): 6.0
AMBEL herbicidal rating ([6]; rate 0.1250 kg/ha): 9.0
CASOB preemergence herbicidal rating ([7]; rate 0.0156 kg/ha): 0.0
CASOB preemergence herbicidal rating ([7]; rate 0.0313 kg/ha): 0.7
CASOB preemergence herbicidal rating ([7]; rate 0.0625 kg/ha): 0.7
CASOB preemergence herbicidal rating ([7]; rate 0.1250 kg/ha): 0.0
CASOB preemergence herbicidal rating ([7]; rate 0.2500 kg/ha): 3.7
CASOB preemergence herbicidal rating ([7]; rate 0.5000 kg/ha): 7.0
Herbicidal rating SAGPY ([8]; 0.0313 kg/ha): 0.0
Herbicidal rating SAGPY ([8]; 0.0625 kg/ha): 0.0
Herbicidal rating SAGPY ([8]; 0.1250 kg/ha): 4.0
Herbicidal rating SAGPY ([8]; 0.2500 kg/ha): 4.0
TRZAWR preemergence herbicidal rating ([9]; rate 0.0156 kg/ha): 0.0
TRZAWR preemergence herbicidal rating ([9]; rate 0.0313 kg/ha): 0.0
TRZAWR preemergence herbicidal rating ([9]; rate 0.0625 kg/ha): 0.0
TRZAWR preemergence herbicidal rating ([9]; rate 0.1250 kg/ha): 2.0
TRZAWR preemergence herbicidal rating ([9]; rate 0.2500 kg/ha): 7.0
TRZAWR preemergence herbicidal rating ([9]; rate 0.5000 kg/ha): 7.0
IPOHE herbicidal rating ([10]; rate 0.0156 kg/ha): 7.0
IPOHE herbicidal rating ([10]; rate 0.0313 kg/ha): 8.5
IPOHE herbicidal rating ([10]; rate 0.0625 kg/ha): 9.0
IPOHE herbicidal rating ([10]; rate 0.1250 kg/ha): 9.0
Herbicidal rating CYPIR ([11]; rate 0.0313 kg/ha): 0.0
Herbicidal rating CYPIR ([11]; rate 0.0625 kg/ha): 0.0
Herbicidal rating CYPIR ([11]; rate 0.1250 kg/ha): 6.0
Herbicidal rating CYPIR ([11]; rate 0.2500 kg/ha): 9.0
IPOHE preemergence herbicidal rating ([12]; rate 0.0156 kg/ha): 0.5
IPOHE preemergence herbicidal rating ([12]; rate 0.0313 kg/ha): 0.7
IPOHE preemergence herbicidal rating ([12]; rate 0.0625 kg/ha): 4.0
IPOHE preemergence herbicidal rating ([12]; rate 0.1250 kg/ha): 5.7
IPOHE preemergence herbicidal rating ([12]; rate 0.2500 kg/ha): 9.0
IPOHE preemergence herbicidal rating ([12]; rate 0.5000 kg/ha): 9.0
Herbicidal rating MOOVA ([13]; 0.0313 kg/ha): 9.0
Herbicidal rating MOOVA ([13]; 0.0625 kg/ha): 9.0
Herbicidal rating MOOVA ([13]; 0.1250 kg/ha): 9.0
Herbicidal rating MOOVA ([13]; 0.2500 kg/ha): 9.0
ZEAMX preemergence herbicidal rating ([14]; rate 0.0156 kg/ha): 0.0
ZEAMX preemergence herbicidal rating ([14]; rate 0.0313 kg/ha): 0.3
ZEAMX preemergence herbicidal rating ([14]; rate 0.0625 kg/ha): 1.0
ZEAMX preemergence herbicidal rating ([14]; rate 0.1250 kg/ha): 1.0
ZEAMX preemergence herbicidal rating ([14]; rate 0.2500 kg/ha): 3.3
ZEAMX preemergence herbicidal rating ([14]; rate 0.5000 kg/ha): 5.5
